We go through 6 compounds from ChEMBL document CHEMBL1156420, “In vitro efficacy, resistance selection, and structural modeling studies implicate the malarial parasite apicoplast as the target of azithromycin” (J Biol Chem, 2007).

Common to all, as to type: functional, organism-based
Experiment [1] has as its system Plasmodium falciparum. The experiment is described as follows: Antimalarial activity after 96hrs against Plasmodium falciparum GCO3 C2 mutant CRT/MDR1 by [3H]hypoxanthine uptake.
Experiment [2] deals with Plasmodium falciparum. Put plainly: Antimalarial activity against Plasmodium falciparum 3BA6 SDD with CRT and MDR1 mutation after 96 hrs in [3H]hypoxanthine uptake. To be noted: 3BA6, MDR1.
Experiment [3] relates to Plasmodium falciparum. Put plainly: Antimalarial activity after 96 hrs against Plasmodium falciparum Dd2 C1 mutant CRT/MDR1 by [3H]hypoxanthine uptake.
Experiment [4] deals with Plasmodium falciparum. Put plainly: Antimalarial activity after 96 hrs against azithromycin-resistant Plasmodium falciparum Dd2 by [3H]hypoxanthine uptake.
Experiment [5] has as its system Plasmodium falciparum. Put plainly: Antimalarial activity after 96 hrs against Plasmodium falciparum 7G8 C1 mutant CRT/MDR1 by [3H]hypoxanthine uptake. To be noted: 7G8, MDR1.
Experiment [6] deals with Plasmodium falciparum. Put plainly: Antimalarial activity after 96 hrs against Plasmodium falciparum 3BA6 CDY mutant CRT/MDR1 by [3H]hypoxanthine uptake. The conditions noted are these: 3BA6, MDR1.
Experiment [7] deals with Plasmodium falciparum. The experiment is described as follows: Antimalarial activity after 96 hrs against Plasmodium falciparum Dd2 by [3H]hypoxanthine uptake.
The subject of experiment [8] is Plasmodium falciparum. The experiment is described as follows: Antimalarial activity after 96 hrs against Plasmodium falciparum 3BA6 by [3H]hypoxanthine uptake.
In experiment [9] the test system is Plasmodium falciparum. The experiment is described as follows: Antimalarial activity after 48 hrs against Plasmodium falciparum Dd2 by [3H]hypoxanthine uptake.
Experiment [10] concerns Plasmodium falciparum. Put plainly: Antimalarial activity after 96 hrs against Plasmodium falciparum GCO3 CDY mutant CRT/MDR1 by [3H]hypoxanthine uptake.
Experiment [11] relates to Plasmodium falciparum. Put plainly: Antimalarial activity after 96 hrs against Plasmodium falciparum GCO3 C6 mutant CRT/MDR1 by [3H]hypoxanthine uptake.
Experiment [12] deals with Plasmodium falciparum. The experiment is described as follows: Antimalarial activity after 96 hrs against Plasmodium falciparum GCO3 SDD mutant CRT/MDR1 by [3H]hypoxanthine uptake.
Experiment [13] deals with Plasmodium falciparum. The experiment is described as follows: Antimalarial activity after 96 hrs against Plasmodium falciparum Dd2 T76K1 mutant CRT/MDR1 by [3H]hypoxanthine uptake.
The test system of experiment [14] is Plasmodium falciparum. The experiment is described as follows: Antimalarial activity after 96 hrs against azithromycin-resistant Plasmodium falciparum 7G8 by [3H]hypoxanthine uptake.
For experiment [15], the system named is Plasmodium falciparum. The experiment is described as follows: Antimalarial activity after 96 hrs against Plasmodium falciparum 7G8 T76K1 mutant CRT/MDR1 by [3H]hypoxanthine uptake. To be noted: 7G8, MDR1.
Experiment [16] deals with Plasmodium falciparum. The experiment is described as follows: Antimalarial activity after 96 hrs against Plasmodium falciparum 3BA6 SND mutant CRT/MDR1 by [3H]hypoxanthine uptake. The conditions noted are these: 3BA6, MDR1.
Experiment [17] deals with Plasmodium falciparum. The experiment is described as follows: Antimalarial activity after 96hrs against Plasmodium falciparum 7G8 by [3H]hypoxanthine uptake.
The test system of experiment [18] is Plasmodium falciparum. Put plainly: Antimalarial activity after 96 hrs against Plasmodium falciparum GCO3 SND mutant CRT/MDR1 by [3H]hypoxanthine uptake.
Experiment [19] deals with Plasmodium falciparum. Put plainly: Antimalarial activity after 96 hrs against Plasmodium falciparum GCO3 by [3H]hypoxanthine uptake.
Experiment [20] concerns Plasmodium falciparum. The experiment is described as follows: Antimalarial activity after 96 hrs against Plasmodium falciparum GCO3 C4 mutant CRT/MDR1 by [3H]hypoxanthine uptake.
The test system of experiment [21] is Plasmodium falciparum. The experiment is described as follows: Antimalarial activity after 48 hrs against Plasmodium falciparum 7G8 by [3H]hypoxanthine uptake.
Experiment [22] relates to Plasmodium falciparum. Put plainly: Antimalarial activity after 48 hrs against Plasmodium falciparum GCO3 by [3H]hypoxanthine uptake.

With `CC[C@H]1OC(=O)[C@H](C)[C@@H](O[C@H]2C[C@@](C)(OC)[C@@H](O)[C@H](C)O2)[C@H](C)[C@@H](O[C@@H]2O[C@H](C)C[C@H](N(C)C)[C@H]2O)[C@](C)(O)C[C@@H](C)CN(C)[C@H](C)[C@@H](O)[C@]1(C)O` [AZITHROMYCIN], the IC50 – broadly, the midpoint of a concentration-inhibition curve – in experiment [1] came to 48 nM; in experiment [2] it was 155 nM; in [3] it was 95.7 nM; in experiment [4], 1940 nM; in experiment [5] it was 142 nM; in experiment [6] it was 194 nM. In addition, the concentration for half-maximal inhibition (IC50) was 103 nM in [7]; 180 nM in experiment [8]; 3460 nM in experiment [9]; 70.2 nM in [10]; 76.7 nM in experiment [11]; 63.3 nM in [12]. Also, the IC50 in experiment [13] turned out to be 122 nM; in experiment [14], 3970 nM; in [15], 115 nM; in experiment [16] it was 158 nM; in experiment [17] it was 228 nM; in [18] it was 47.8 nM. For the same compound, the IC50 in [19] turned out to be 43.3 nM; in [20] it was 66.7 nM; in experiment [21] it was 15700 nM; in experiment [22] it was 22600 nM.
`C[C@H]1c2cccc(O)c2C(=O)C2=C(O)[C@]3(O)C(=O)C(C(N)=O)=C(O)[C@@H](N(C)C)[C@@H]3[C@@H](O)[C@@H]21` [DOXYCYCLINE]: the IC50 was 302 nM in experiment [4], 432 nM in experiment [7], 603 nM in [14] and 1440 nM in experiment [17].
Regarding `CC[C@H]1OC(=O)[C@H](C)[C@@H](O[C@H]2C[C@@](C)(OC)[C@@H](O)[C@H](C)O2)[C@H](C)[C@@H](O[C@@H]2O[C@H](C)C[C@H](N(C)C)[C@H]2O)[C@](C)(O)C[C@@H](C)C(=O)[C@H](C)[C@@H](O)[C@]1(C)O` [ERYTHROMYCIN], the IC50 in experiment [4] was 20300 nM; in experiment [7] it was 9400 nM; in [14] it was 39500 nM; in [17], 34700 nM.
As for `CN(C)[C@@H]1C(O)=C(C(N)=O)C(=O)[C@@]2(O)C(O)=C3C(=O)c4c(O)cccc4[C@@](C)(O)[C@H]3C[C@@H]12` [TETRACYCLINE], the IC50 in experiment [4] amounted to 324 nM; in experiment [7], 397 nM; in experiment [14], 365 nM; in experiment [17], 697 nM.
For the compound `C=C(NC(=O)C(=C)NC(=O)c1csc(C2=N[C@@H]3c4csc(n4)[C@H]4NC(=O)c5csc(n5)[C@H]([C@](C)(O)[C@@H](C)O)NC(=O)[C@H]5CSC(=N5)/C(=C/C)NC(=O)[C@H]([C@@H](C)O)NC(=O)c5csc(n5)[C@]3(CC2)NC(=O)[C@H](C)NC(=O)C(=C)NC(=O)[C@H](C)NC(=O)[C@H]([C@@H](C)CC)N[C@@H]2C=Cc3c([C@H](C)O)cc(nc3[C@H]2O)C(=O)O[C@@H]4C)n1)C(N)=O` [THIOSTREPTON], the IC50 in [4] was determined as 175 nM; in [7], 292 nM; in experiment [9], 2110 nM; in [14] it was 217 nM; in [17], 555 nM; in [19], 916 nM. In addition, the IC50 in experiment [21] came out at 688 nM; in experiment [22] it was 2280 nM.
Consider `Oc1cc(Cl)ccc1Oc1ccc(Cl)cc1Cl` [TRICLOSAN], for which the IC50 amounted to 4190 nM in [7]; 6260 nM in [9]; 424 nM in experiment [17]; 1530 nM in experiment [19]; 774 nM in [21]; 2710 nM in experiment [22].
